From ChEMBL document CHEMBL1777777, “Design, synthesis of symmetrical bivalent mimetics of annonaceous acetogenins and their cytotoxicities” (Bioorg Med Chem Lett, 2011)
Active and inactive are the calls of the source. The rule behind the calls is not given here.

test system: not listed separately; test: Cytotoxicity against human BEAS2B cells after 74 hrs by MTT assay; type: cell-based, BEAS-2B; conditions: BEAS2B cells

Row | Compound | GI50 at 74 h [µM]
1 | COC1=C(OC)C(=O)C(CCCCCCCCCN2CCN(CCCCCCCCCC3=C(C)C(=O)C(OC)=C(OC)C3=O)CC2)=C(C)C1=O | > 10
2 | CCCCCCCCCC[C@H](O)COCCOC[C@@H](O)CCCCCCCCCCCCC1=C[C@H](C)OC1=O | > 10
3 | C[C@H]1C=C(CCCCCCCC(O)CN(C)CCN(C)CC(O)CCCCCCCC2=C[C@H](C)OC2=O)C(=O)O1 (mixture of isomers) | > 10
4 | C[C@H]1C=C(CCCCCCCC(O)CN(C)CCCN(C)CC(O)CCCCCCCC2=C[C@H](C)OC2=O)C(=O)O1 (mixture of isomers) | 10.6

same assay, conditions: beas-2b, 74 h

Row | Compound | GI50
5 | COc1c(C)c(CCCCCCCCCN2CCN(CCCCCCCCCc3c(C)c(OC)c(OC)c(OC)c3OC)CC2)c(OC)c(OC)c1OC | Not Active
6 | C[C@H]1C=C(CCCCCCCC(O)CNCCCNCC(O)CCCCCCCC2=C[C@H](C)OC2=O)C(=O)O1 (mixture of isomers) | Not Active
7 | C[C@H]1C=C(CCCCCCCC(O)CNc2ccc(NCC(O)CCCCCCCC3=C[C@H](C)OC3=O)cc2)C(=O)O1 (mixture of isomers) | Not Active
8 | C[C@H]1C=C(CCCCCCCC(O)CN2CCN(CC(O)CCCCCCCC3=C[C@H](C)OC3=O)CC2)C(=O)O1 (mixture of isomers) | Not Active

test system: HCT-116; test: Cytotoxicity against human HCT116 cells after 74 hrs by MTT assay; type: functional; conditions: not given

Row | Compound | GI50
9 | COc1c(C)c(CCCCCCCCCN2CCN(CCCCCCCCCc3c(C)c(OC)c(OC)c(OC)c3OC)CC2)c(OC)c(OC)c1OC | inactive
10 | C[C@H]1C=C(CCCCCCCC(O)CNCCCNCC(O)CCCCCCCC2=C[C@H](C)OC2=O)C(=O)O1 (mixture of isomers) | inactive
11 | C[C@H]1C=C(CCCCCCCC(O)CN(C)CCN(C)CC(O)CCCCCCCC2=C[C@H](C)OC2=O)C(=O)O1 (mixture of isomers) | inactive

same assay, conditions: HCT-116, 74 h

Row | Compound | GI50 [nM]
12 | COC1=C(OC)C(=O)C(CCCCCCCCCN2CCN(CCCCCCCCCC3=C(C)C(=O)C(OC)=C(OC)C3=O)CC2)=C(C)C1=O | 500
13 | CCCCCCCCCC[C@H](O)COCCOC[C@@H](O)CCCCCCCCCCCCC1=C[C@H](C)OC1=O | 110
14 | C[C@H]1C=C(CCCCCCCC(O)CN(C)CCCN(C)CC(O)CCCCCCCC2=C[C@H](C)OC2=O)C(=O)O1 (mixture of isomers) | > 10000
15 | C[C@H]1C=C(CCCCCCCC(O)CNc2ccc(NCC(O)CCCCCCCC3=C[C@H](C)OC3=O)cc2)C(=O)O1 (mixture of isomers) | 2490
16 | C[C@H]1C=C(CCCCCCCC(O)CN2CCN(CC(O)CCCCCCCC3=C[C@H](C)OC3=O)CC2)C(=O)O1 (mixture of isomers) | 3720

test system: SGC-7901; test: Cytotoxicity against human SGC7901 cells after 74 hrs by MTT assay; type: functional; conditions: not given

Row | Compound | GI50
17 | COc1c(C)c(CCCCCCCCCN2CCN(CCCCCCCCCc3c(C)c(OC)c(OC)c(OC)c3OC)CC2)c(OC)c(OC)c1OC | inactive
18 | C[C@H]1C=C(CCCCCCCC(O)CNCCCNCC(O)CCCCCCCC2=C[C@H](C)OC2=O)C(=O)O1 (mixture of isomers) | inactive

same assay, conditions: SGC-7901, 74 h

Row | Compound | GI50 [nM]
19 | COC1=C(OC)C(=O)C(CCCCCCCCCN2CCN(CCCCCCCCCC3=C(C)C(=O)C(OC)=C(OC)C3=O)CC2)=C(C)C1=O | 490
20 | CCCCCCCCCC[C@H](O)COCCOC[C@@H](O)CCCCCCCCCCCCC1=C[C@H](C)OC1=O | 60
21 | C[C@H]1C=C(CCCCCCCC(O)CN(C)CCN(C)CC(O)CCCCCCCC2=C[C@H](C)OC2=O)C(=O)O1 (mixture of isomers) | 6220
22 | C[C@H]1C=C(CCCCCCCC(O)CN(C)CCCN(C)CC(O)CCCCCCCC2=C[C@H](C)OC2=O)C(=O)O1 (mixture of isomers) | 4120
23 | C[C@H]1C=C(CCCCCCCC(O)CNc2ccc(NCC(O)CCCCCCCC3=C[C@H](C)OC3=O)cc2)C(=O)O1 (mixture of isomers) | 4400
24 | C[C@H]1C=C(CCCCCCCC(O)CN2CCN(CC(O)CCCCCCCC3=C[C@H](C)OC3=O)CC2)C(=O)O1 (mixture of isomers) | 1670

test system: not listed separately; test: Cytotoxicity against human HLF cells after 74 hrs by MTT assay; type: cell-based; conditions: HLF cells

Row | Compound | GI50 at 74 h [µM]
25 | COC1=C(OC)C(=O)C(CCCCCCCCCN2CCN(CCCCCCCCCC3=C(C)C(=O)C(OC)=C(OC)C3=O)CC2)=C(C)C1=O | > 10
26 | CCCCCCCCCC[C@H](O)COCCOC[C@@H](O)CCCCCCCCCCCCC1=C[C@H](C)OC1=O | > 10
27 | C[C@H]1C=C(CCCCCCCC(O)CN(C)CCN(C)CC(O)CCCCCCCC2=C[C@H](C)OC2=O)C(=O)O1 (mixture of isomers) | > 10
28 | C[C@H]1C=C(CCCCCCCC(O)CN(C)CCCN(C)CC(O)CCCCCCCC2=C[C@H](C)OC2=O)C(=O)O1 (mixture of isomers) | 4.42
29 | C[C@H]1C=C(CCCCCCCC(O)CN2CCN(CC(O)CCCCCCCC3=C[C@H](C)OC3=O)CC2)C(=O)O1 (mixture of isomers) | > 10

same assay, conditions: hlf, 74 h

Row | Compound | GI50
30 | COc1c(C)c(CCCCCCCCCN2CCN(CCCCCCCCCc3c(C)c(OC)c(OC)c(OC)c3OC)CC2)c(OC)c(OC)c1OC | Not Active
31 | C[C@H]1C=C(CCCCCCCC(O)CNCCCNCC(O)CCCCCCCC2=C[C@H](C)OC2=O)C(=O)O1 (mixture of isomers) | Not Active
32 | C[C@H]1C=C(CCCCCCCC(O)CNc2ccc(NCC(O)CCCCCCCC3=C[C@H](C)OC3=O)cc2)C(=O)O1 (mixture of isomers) | Not Active

test system: HT-29; test: Cytotoxicity against human HT-29 cells after 74 hrs by MTT assay; type: functional; conditions: not given

Row | Compound | GI50
33 | COc1c(C)c(CCCCCCCCCN2CCN(CCCCCCCCCc3c(C)c(OC)c(OC)c(OC)c3OC)CC2)c(OC)c(OC)c1OC | inactive
34 | C[C@H]1C=C(CCCCCCCC(O)CNCCCNCC(O)CCCCCCCC2=C[C@H](C)OC2=O)C(=O)O1 (mixture of isomers) | inactive
35 | C[C@H]1C=C(CCCCCCCC(O)CN(C)CCN(C)CC(O)CCCCCCCC2=C[C@H](C)OC2=O)C(=O)O1 (mixture of isomers) | inactive

same assay, conditions: HT-29, 74 h

Row | Compound | GI50 [nM]
36 | COC1=C(OC)C(=O)C(CCCCCCCCCN2CCN(CCCCCCCCCC3=C(C)C(=O)C(OC)=C(OC)C3=O)CC2)=C(C)C1=O | > 10000
37 | CCCCCCCCCC[C@H](O)COCCOC[C@@H](O)CCCCCCCCCCCCC1=C[C@H](C)OC1=O | 350
38 | C[C@H]1C=C(CCCCCCCC(O)CN(C)CCCN(C)CC(O)CCCCCCCC2=C[C@H](C)OC2=O)C(=O)O1 (mixture of isomers) | 1500
39 | C[C@H]1C=C(CCCCCCCC(O)CNc2ccc(NCC(O)CCCCCCCC3=C[C@H](C)OC3=O)cc2)C(=O)O1 (mixture of isomers) | 870
40 | C[C@H]1C=C(CCCCCCCC(O)CN2CCN(CC(O)CCCCCCCC3=C[C@H](C)OC3=O)CC2)C(=O)O1 (mixture of isomers) | > 10000

test system: MCF7; test: Cytotoxicity against human MCF7 cells after 74 hrs by MTT assay; type: functional; conditions: not given

Row | Compound | GI50
41 | COc1c(C)c(CCCCCCCCCN2CCN(CCCCCCCCCc3c(C)c(OC)c(OC)c(OC)c3OC)CC2)c(OC)c(OC)c1OC | inactive
42 | C[C@H]1C=C(CCCCCCCC(O)CNCCCNCC(O)CCCCCCCC2=C[C@H](C)OC2=O)C(=O)O1 (mixture of isomers) | inactive

same assay, conditions: MCF7, 74 h

Row | Compound | GI50 [nM]
43 | COC1=C(OC)C(=O)C(CCCCCCCCCN2CCN(CCCCCCCCCC3=C(C)C(=O)C(OC)=C(OC)C3=O)CC2)=C(C)C1=O | 400
44 | CCCCCCCCCC[C@H](O)COCCOC[C@@H](O)CCCCCCCCCCCCC1=C[C@H](C)OC1=O | 260
45 | C[C@H]1C=C(CCCCCCCC(O)CN(C)CCN(C)CC(O)CCCCCCCC2=C[C@H](C)OC2=O)C(=O)O1 (mixture of isomers) | 3160
46 | C[C@H]1C=C(CCCCCCCC(O)CN(C)CCCN(C)CC(O)CCCCCCCC2=C[C@H](C)OC2=O)C(=O)O1 (mixture of isomers) | 2380
47 | C[C@H]1C=C(CCCCCCCC(O)CNc2ccc(NCC(O)CCCCCCCC3=C[C@H](C)OC3=O)cc2)C(=O)O1 (mixture of isomers) | 7370
48 | C[C@H]1C=C(CCCCCCCC(O)CN2CCN(CC(O)CCCCCCCC3=C[C@H](C)OC3=O)CC2)C(=O)O1 (mixture of isomers) | 2190
